Measured values reported in patent US10688093B2, “Methods, compositions, and uses of novel Fyn kinase inhibitors” (priority 2015, dated 2020).

target: full-length recombinant human FYN A (Homo sapiens (Human), UniProt P06241); assay: ADP-Glo Kinase Assay of FYN kinase inhibition; assay type: biochemical; conditions: primary screen, initial compounds
How it was run: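 ADP-Glo read-out of peptide phosphorylation after 90 min RT with 12.5 pmol ATP and 100 pg 12-mer substrate. Enzyme was N-GST full-length human FYN A from insect cells, 3 pg, pre-incubated 30 min with compound, 10 points from 10 μM top, 3-fold steps; IC50 from curve.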

Sequence of full-length recombinant human FYN A (P06241 whole entry): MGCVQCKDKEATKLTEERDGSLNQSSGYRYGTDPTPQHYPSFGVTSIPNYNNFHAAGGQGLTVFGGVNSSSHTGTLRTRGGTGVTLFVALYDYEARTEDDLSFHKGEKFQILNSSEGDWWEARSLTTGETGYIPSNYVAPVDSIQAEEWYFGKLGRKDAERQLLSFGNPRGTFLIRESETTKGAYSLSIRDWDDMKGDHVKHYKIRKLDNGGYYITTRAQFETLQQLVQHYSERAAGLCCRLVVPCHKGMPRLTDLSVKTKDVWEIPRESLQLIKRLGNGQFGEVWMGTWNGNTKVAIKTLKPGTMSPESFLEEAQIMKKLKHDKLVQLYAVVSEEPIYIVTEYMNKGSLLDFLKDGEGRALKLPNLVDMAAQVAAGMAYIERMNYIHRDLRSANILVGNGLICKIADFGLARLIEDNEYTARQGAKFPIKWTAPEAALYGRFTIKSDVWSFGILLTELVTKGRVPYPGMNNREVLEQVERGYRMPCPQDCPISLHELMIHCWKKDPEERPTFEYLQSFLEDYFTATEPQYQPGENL

Going from `Cn1cc(-c2cnc3ccc(Cc4ccc(F)cc4)nn23)cn1` [Compound 481, 6-[(4-fluorophenyl)methyl]-3-(1-methylpyrazol-4-yl)imidazo [1,2-b]pyridazine] to `Nc1ccc(-c2cnc3ccc(Cc4ccccc4)nn23)cn1` [Compound 486, 5-(6-benzylimidazo [1,2-b]pyridazin-3-yl)pyridin-2-amine], the IC50 rises from 1.3 µM to 3.64 µM (2.8-fold).

Compared with `O=C(NCCO)c1cccc(-c2ccc3ncc(-c4cccc(Cl)c4)n3n2)c1` [Compound 483, 3-[3-(3-chlorophenyl)imidazo[1,2-b]pyridazin-6-yl]-N-(2-hydroxyethyl) benzamide], `CNC(=O)c1cccc(-c2ccc3ncc(-c4ccc(CO)cc4)n3n2)c1` [Compound 488, 3-[3-[4-(hydroxymethyl)phenyl]imidazo [1,2-b]pyridazin-6-yl]-N-methyl-benzamide] is 2-fold lower in IC50: 30 µM for the first, 14.9 µM for the second.

Going from `Cc1cccc(Cc2ccc3ncc(-c4cccc(C(N)=O)c4)n3n2)c1` [Compound 484, 3-[6-(m-tolylmethyl)imidazo[1,2-b]pyridazin-3-yl]benzamide] to `CC(=O)c1cccc(-c2cnc3ccc(Cc4ccccc4)nn23)c1` [Compound 485, 1-[3-(6-benzylimidazo [1,2-b]pyridazin-3-yl)phenyl] ethanone], the IC50 rises from 2.17 µM to 3.97 µM (1.8-fold). The first is the more potent here.

`CN(C)CCNC(=O)c1cccc(-c2cnc3ccc(-c4ccoc4)nn23)c1` [Compound 487, N-(2-dimethylamino-ethyl)-3-[6-(3-furyl)imidazo [1,2-b]pyridazin-3-yl]benzamide] and `COc1ccccc1-c1n[nH]c2nccc(-c3cccc(C(=O)NCCN(C)C)c3)c12` [Compound 507, N-(2-dimethylamino-ethyl)-3-[3-(2-methoxyphenyl)-1H-pyrazolo[3,4-b]pyridin-4-yl]benzamide] are within 1.5-fold of each other in IC50: 3.88 µM for the first, 4.85 µM for the second.

`COc1ccccc1-c1n[nH]c2nccc(-c3ccc(N4CCOCC4)cc3)c12` [Compound 489, 4-[4-[3-(2-methoxyphenyl)-1H-pyrazolo[3,4-b]pyridin-4-yl]phenyl] morpholine] and `COc1ccccc1-c1n[nH]c2nccc(-c3ccc(C#N)cc3)c12` [Compound 521, 4-[3-(2-methoxyphenyl)-1H-pyrazolo[3,4-b]pyridin-4-yl]benzonitrile] are within 1.5-fold of each other in IC50: 1.39 µM for the first, 1.58 µM for the second.

`COc1ccccc1-c1n[nH]c2nccc(-c3ccc(F)c(Cl)c3)c12` [Compound 490, 4-(3-chloro-4-fluoro-phenyl)-3-(2-methoxy-phenyl)-1H-pyrazolo[3,4-b]pyridine] and `COc1ccccc1-c1n[nH]c2nccc(-c3cccc(F)c3)c12` [Compound 501, 4-(3-fluorophenyl)-3-[2-methoxy-phenyl)-1H-pyrazolo[3,4-b]pyridine] are within 1.5-fold of each other in IC50: 1.28 µM for the first, 1.35 µM for the second.

Compared with `COc1ccc(-c2ccnc3[nH]nc(-c4ccccc4OC)c23)cn1` [Compound 491, 3-(2-methoxyphenyl)-4-(6-methoxy-3-pyridyl)-1H-pyrazolo[3,4-b]pyridine], `COc1ncc(-c2ccnc3[nH]nc(-c4ccccc4OC)c23)cn1` [Compound 492, 3-(2-methoxyphenyl)-4-(2-methoxy-pyrimidin-5-yl)-1H-pyrazolo[3,4-b]pyridine] is 2.2-fold higher in IC50: 2.93 µM for the first, 6.43 µM for the second.

Going from `CN(C)C(=O)c1ccc(-c2ccnc3[nH]nc(-c4cccc(F)c4)c23)cc1` [Compound 493, 4-[3-(3-fluorophenyl)-1H-pyrazolo[3,4-b]pyridin-4-yl]-N,N-dimethyl-benzamide] to `NC(=O)c1ccc(-c2ccnc3[nH]nc(-c4cccc(F)c4)c23)cc1` [Compound 509, 4-[3-(3-fluorophenyl)-1H-pyrazolo[3,4-b]pyridin-4-yl]benzamide], the IC50 falls from 3.86 µM to 2.05 µM (1.9-fold).

Going from `CN(C)C(=O)c1ccc(-c2ccnc3[nH]nc(-c4ccsc4)c23)cc1` [Compound 494, N,N-dimethyl-4-[3-(3-thienyl)-1H-pyrazolo[3,4-b]pyridin-4-yl]benzamide] to `CC(=O)Nc1ccc(-c2ccnc3[nH]nc(-c4ccsc4)c23)cc1` [Compound 513, N-[4-[3-(3-thienyl)-1H-pyrazolo[3,4-b]pyridin-4-yl]phenyl] acetamide], the IC50 falls from 11.2 µM to 4.87 µM (2.3-fold). The second is the more potent here.

Going from `CC(=O)Nc1ccc(-c2ccnc3[nH]nc(C4CC4)c23)cc1` [Compound 495, N-[4-(3-cyclopropyl-1H-pyrazolo[3,4-b]pyridin-4-yl)phenyl] acetamide] to `Clc1cccc(-c2ccnc3[nH]nc(C4CC4)c23)c1` [Compound 506, 4-(3-chlorophenyl)-3-cyclopropyl-1H-pyrazolo[3,4-b]pyridine], the IC50 rises from 8.89 µM to 30 µM (3.4-fold).

`Nc1cccc(-c2ccnc3[nH]nc(-c4ccncc4)c23)c1` [Compound 496, 3-[3-(4-pyridyl)-1H-pyrazolo[3,4-b]pyridin-4-yl]aniline] and `c1cncc(-c2n[nH]c3nccc(-c4ccoc4)c23)c1` [Compound 518, 4-(3-furyl)-3-(3-pyridyl)-1H-pyrazolo[3,4-b]pyridine] are within 1.5-fold of each other in IC50: 18 µM for the first, 14.3 µM for the second.

Compared with `OCc1ccc(-c2ccnc3[nH]nc(-c4cccc(F)c4)c23)cc1` [Compound 497], `OCc1ccc(-c2ccnc3[nH]nc(-c4cccc(Cl)c4)c23)cc1` [Compound 526, [4-[3-(3-chlorophenyl)-1H-pyrazolo[3,4-b]pyridin-4-yl]phenyl] methanol] is 1.7-fold higher in IC50: 3.88 µM for the first, 6.5 µM for the second.

Compared with `COc1ccccc1-c1n[nH]c2nccc(-c3ccsc3)c12` [Compound 498, 3-(2-methoxyphenyl)-4-(3-thienyl)-1H-pyrazolo[3,4-b]pyridine], `COc1ccccc1-c1n[nH]c2nccc(-c3ccoc3)c12` [Compound 516, 4-(3-furyl)-3-(2-methoxyphenyl)-1H-pyrazolo[3,4-b]pyridine] is 1.8-fold higher in IC50: 2.67 µM for the first, 4.9 µM for the second. The first is the more potent here.

Compared with `COc1cc(-c2n[nH]c3nccc(-c4ccc(NC(C)=O)cc4)c23)cc(OC)c1OC` [Compound 499, N-[4-[3-(3,4,5-trimethoxy-phenyl)-1H-pyrazolo[3,4-b]pyridin-4-yl]phenyl] acetamide], `COc1cc(-c2n[nH]c3nccc(-c4ccc(CO)cc4)c23)cc(OC)c1OC` [Compound 519, [4-[3-(3,4,5-trimethoxy-phenyl)-1H-pyrazolo[3,4-b]pyridin-4-yl]phenyl] methanol] is 2.7-fold higher in IC50: 2.02 µM for the first, 5.38 µM for the second.

`COc1ccccc1-c1n[nH]c2nccc(/C=C/c3ccccc3)c12` [Compound 500, 3-(2-methoxyphenyl)-4-[(E)-styryl]-1H-pyrazolo[3,4-b]pyridine] and `COc1ccccc1-c1n[nH]c2nccc(-c3cccc(CO)c3)c12` [Compound 508, [3-[3-(2-methoxyphenyl)-1H-pyrazolo[3,4-b]pyridin-4-yl]phenyl] methanol] are within 1.5-fold of each other in IC50: 1.13 µM for the first, 1.67 µM for the second.

Going from `COc1ccccc1-c1n[nH]c2nccc(-c3ccc(C(N)=O)cc3)c12` [Compound 502, 4-[3-(2-methoxyphenyl)-1H-pyrazolo[3,4-b]pyridin-4-yl]benzamide] to `NC(=O)c1ccc(-c2ccnc3[nH]nc(-c4ccc(Cl)cc4)c23)cc1` [Compound 510, 4-[3-(4-chlorophenyl)-1H-pyrazolo[3,4-b]pyridin-4-yl]benzamide], the IC50 rises from 1.48 µM to 5.71 µM (3.9-fold).

Compared with `OCc1ccc(-c2ccnc3[nH]nc(-c4ccccc4)c23)cc1` [Compound 503, [4-(3-phenyl-1H-pyrazolo[3,4-b]pyridin-4-yl)phenyl] methanol], `OCc1ccc(-c2ccnc3[nH]nc(-c4ccc5c(c4)OCO5)c23)cc1` [Compound 523, [4-[3-(1,3-benzodioxol-5-yl)-1H-pyrazolo[3,4-b]pyridin-4-yl]phenyl] methanol] is 1.5-fold lower in IC50: 7.11 µM for the first, 4.64 µM for the second.

Going from `c1ccc(-c2n[nH]c3nccc(-c4cn[nH]c4)c23)cc1` [Compound 504, 3-phenyl-4-(1H-pyrazol-4-yl)-1H-pyrazolo[3,4-b]pyridine] to `Oc1cccc(-c2ccnc3[nH]nc(-c4ccc5c(c4)OCO5)c23)c1` [Compound 517, 3-[3-(1,3-benzodioxol-5-yl)-1H-pyrazolo[3,4-b]pyridin-4-yl]phenol], the IC50 rises from 0.852 µM to 6.25 µM (7.3-fold).

First: COc1cc(-c2n[nH]c3nccc(-c4ccc(C(C)C)cc4)c23)cc(OC)c1OC [Compound 505, 4-(4-isopropylphenyl)-3-(3,4,5-trimethoxy-phenyl)-1H-pyrazolo[3,4-b]pyridine]
Second: COc1cc(-c2n[nH]c3nccc(-c4ccc(S(C)(=O)=O)cc4)c23)cc(OC)c1OC [Compound 525, 4-(4-methylsulfonyl-phenyl)-3-(3,4,5-trimethoxy-phenyl)-1H-pyrazolo[3,4-b]pyridlne]
The IC50 of the first is 1.9-fold higher: 20.9 µM for the first, 11.2 µM for the second. The second is the more potent here.

Going from `COc1cc(-c2n[nH]c3nccc(-c4cccc(O)c4)c23)cc(OC)c1OC` [Compound 511, 3-[3-(3,4,5-trimethoxy-phenyl)-1H-pyrazolo[3,4-b]pyridin-4-yl]phenol] to `COc1cc(-c2n[nH]c3nccc(-c4cccc(NS(C)(=O)=O)c4)c23)cc(OC)c1OC` [Compound 515, N-[3-[3-(3,4,5-trimethoxy-phenyl)-1H-pyrazolo[3,4-b]pyridin-4-yl]phenyl] methane-sulfonamide], the IC50 rises from 5.03 µM to 12.8 µM (2.5-fold). The first is the more potent here.

`CC(=O)c1cccc(-c2ccnc3[nH]nc(C4CCNCC4)c23)c1` [Compound 512, 1-[3-[3-(4-piperidyl)-1H-pyrazolo[3,4-b]pyridin-4-yl]phenyl] ethanone] and `COc1cccc(-c2ccnc3[nH]nc(C4CCNCC4)c23)c1` [Compound 520, 4-(3-methoxyphenyl)-3-(4-piperidyl)-1H-pyrazolo[3,4-b]pyridine] are within 1.5-fold of each other in IC50: 19.7 µM for the first, 17.6 µM for the second.

`COc1cc(-c2ccnc3[nH]nc(C4CCNCC4)c23)ccc1O` [Compound 514, 2-methoxy-4-[3-(4-piperidyl)-1H-pyrazolo[3,4-b]pyridin-4-yl]phenol] and `COc1ccc(F)cc1-c1ccnc2[nH]nc(C3CCNCC3)c12` [Compound 524, 4-(5-fluoro-2-methoxy-phenyl)-3-(4-piperidyl)-1H-pyrazolo[3,4-b]pyridine] are within 1.5-fold of each other in IC50: 11.9 µM for the first, 11.7 µM for the second.

`COc1cc(-c2n[nH]c3nccc(-c4ccc(C(=O)N(C)C)cc4)c23)cc(OC)c1OC` [Compound 522, N,N-dimethyl-4-[3-(3,4,5-trimethoxy-phenyl)-1H-pyrazolo[3,4-b]pyridin-4-yl]benzamide] showed an IC50 of 11.1 µM.
